# “Also recorded” adds a separate entry of the source.
# Tests used:
# SW1 tumors = assay: H2K1/EB1 knockdown and EB1 fucomutant reconstitution SW1 tumor model; format: in vivo, mouse; conditions: for L-fuc-triggered tumor suppression: EB1 (IEβ) knockdown tumors (shEB1, shEB1+EV)
# Protocol: Single-cell suspensions from tumor and spleen tissue were stained with Live/Dead Zombie NIR (Biolegend, (San Diego, CA)) at 1:1,000 in PBS for 20 min. Cell suspensions were spun down and stained with the following antibodies: APC anti-mouse CD3 (0.5 μg/mL, BD Biosciences (San Jose, CA)), Pacific Blue anti-mouse CD4 ([…], BD Biosciences (San Jose, CA)), BV785 anti-mouse CD8 (0.5 μg/mL, BD Biosciences (San Jose, CA)), PerCP anti-mouse CD25 ([…], BD Biosciences (San Jose, CA)), FITC anti-mouse F4/80 (0.5 μg/mL, BD Biosciences (San Jose, CA)), PeCy7 anti-mouse CD11c (0.5 μg/mL, BD Biosciences (San Jose, CA)), PE anti-mouse NK1.1 (0.5 μg/mL, BD Biosciences (San Jose, CA)), PE anti-mouse DX5 (0.5 μg/mL, BD Biosciences (San Jose, CA)), PerCP-Cy5.5 anti-mouse CD11b (0.5 μg/mL, BD Biosciences (San Jose, CA)). After staining, the cells were washed and fixed (2% formaldehyde), followed by another wash and flow cytometric analysis. The compensation controls were prepared using 0.5 μg/ml. of each antibody with beads UltraComp eBeads™, (ThermoFisher Scientific (Waltham, MA)). All samples were subject to flow cytometric analysis using a LSR Flow Cytometer (BD Biosciences (San Jose, CA)). Flow cytometric data was further analyzed using FlowJo™ analysis software (BD Biosciences (San Jose, CA)). TIL profiles were determined as a measure of TIL subpopulations per gram of tumor tissues or % of total splenocytes.
# SW1 mouse melanoma cells expressing either shNT (non-targeting shRNA), shH2K1, shEB1, shNT+EV, shEB1+EV, shEB1+EB1 WT, or shEB1+EB1 N46G were injected into syngeneic C3H/HeN female mice. After approximately 7 days, when the mice tumors reached ˜150 mm^3, the mice were either supplemented with or without 100 mM L-fucose (Biosynth (Oak Terrace, IL)) via drinking water, which was provided ad libitum. When the tumors reached ˜2 cm^3, the animals were sacrificed, and the tumors were either processed for flow cytometric profiling or for histological analysis as indicated
# MDSCs = assay: IFNγ of T cells co-cultured with pre-treated MDSCs; format: cell-based, BalbC mice; conditions: CD3/CD28 bead activation
# From the text: Shown are IFNγ production/secretion levels of combined bulk CD4^+ and CD8^+ T cells from BalbC mice treated with either DMSO (black column) or L-fucose (red column) or co-cultured with MDSCs pre-treated with DMSO (aquamarine column) or with L-fucose (purple column). The T cells were activated using CD3/CD28 beads.
# melanoma tumors = conditions: cited from earlier work
compound,measurement,setting,value
C[C@H](O)[C@@H](O)[C@@H](O)[C@H](O)C=O [L-fucose],L-fuc-triggered tumor suppression,SW1 tumors,abrogates
same,L-fuc-triggered tumor suppression,SW1 tumors; listed as L-fuc,completely abrogated
same,reduced tumor growth,SW1 tumors; control knockdown (shNT / shNT+EV) tumors,~60%
same,tumor suppression,SW1 tumors; shEB1+N46G tumors,did not suppress
same,reduced tumor growth,SW1 tumors; shEB1+WT tumors,> 60%
same,L-fuc-triggered induction of total TIL counts and subpopulations,SW1 tumors; shEB1 tumors,reduced; also recorded: abrogated
same,TIL induction by L-fuc,SW1 tumors; shEB1 tumors reconstituted with EB1 WT,restored
same,TIL induction by L-fuc,SW1 tumors; shEB1 tumors reconstituted with EV or EB1 N46G,did not
same,MDSC-mediated suppression of T cell IFNγ production/secretion,MDSCs,completely reverts MDSC-mediated T cell suppression
same,tumor suppression,melanoma tumors; 100 mM fucose dietary supplementation,increased tumor suppression
same,block/reduction of tumor growth (and metastasis),melanoma tumors; dietary L-fucose supplementation,> 50%
same,NK cells and CD4+ T cells in tumor samples,melanoma tumors; fucose supplemented mice,elevated

# Reference: patent US12642809B2, “Fucosylation and immune modulation in cancer” (H. LEE MOFFITT CANCER CENTER AND RESEARCH INSTITUTE, INC., priority 2019, dated 2026)
